Laboratory results: ChEMBL document CHEMBL1133581, “Synthesis and in vitro and in vivo functional studies of ortho-substituted phenylpiperazine and N-substituted 4-N-(o-methoxyphenyl)aminopiperidine analogues of WAY100635” (J Med Chem, 2000)

How the values were obtained:
[1] = molecular target: T1, 5-hydroxytryptamine receptor 1A (Rattus norvegicus, UniProt P19327); assay: biochemical
T1 sequence (P19327 whole entry): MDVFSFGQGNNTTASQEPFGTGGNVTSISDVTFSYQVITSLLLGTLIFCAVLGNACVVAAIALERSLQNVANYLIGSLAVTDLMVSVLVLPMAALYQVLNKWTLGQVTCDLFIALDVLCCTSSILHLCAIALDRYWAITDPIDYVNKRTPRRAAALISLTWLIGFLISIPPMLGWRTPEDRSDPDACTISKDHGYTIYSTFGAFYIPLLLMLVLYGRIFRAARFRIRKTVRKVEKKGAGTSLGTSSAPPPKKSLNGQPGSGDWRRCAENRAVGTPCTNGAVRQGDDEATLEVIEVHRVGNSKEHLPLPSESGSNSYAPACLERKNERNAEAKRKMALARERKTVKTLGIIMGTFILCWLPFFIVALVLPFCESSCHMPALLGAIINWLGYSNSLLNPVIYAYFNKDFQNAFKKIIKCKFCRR
Description: In vitro affinity against 5-hydroxytryptamine 1A receptor using [3H]-8-OH-DPAT in rat hippocampus

Rattus norvegicus [2] = species on record: Rattus norvegicus
Description: Ability to counteract the 8-OH-DPAT (1 mg/kg sc)-induced Hypothermia in rats (n=4) and evaluated for the decrease in body temperature (degrees Celsius) at 10(micro mol/kg)

Rattus norvegicus [3] = species on record: Rattus norvegicus; remark: listed apart in the source
Cavia porcellus = species on record: Cavia porcellus; assay: tissue or blood; conditions: Ileum, read-out: pA2 (converted)
Description: Ability to antagonize the 8-OH-DPAT-induced contractions of a strip of guinea pig ileum tissue

Rattus norvegicus [4] = species on record: Rattus norvegicus; remark: listed apart in the source
Description: Ability to counteract the 8-OH-DPAT (1 mg/kg sc)-induced Hypothermia in rats (n=4) and evaluated for the decrease in body temperature (degrees Celsius) at 0.1(micro mol/kg)

Rattus norvegicus [5] = species on record: Rattus norvegicus; remark: listed apart in the source
Description: Ability to counteract the 8-OH-DPAT (1 mg/kg sc)-induced Hypothermia in rats (n=4) and evaluated for the decrease in body temperature (degrees Celsius) at 1.0(micro mol/kg)

SMILES	IC50 [1] [nM]	Decrease (Rattus norvegicus [2]) [°C]	Vocalization time (Rattus norvegicus [3]) [s]	Kb (Cavia porcellus) [nM]	Decrease (Rattus norvegicus [4]) [°C]	Decrease (Rattus norvegicus [5]) [°C]
COc1ccccc1N(C)C1CCN(CCN(C(=O)C2CCCCC2)c2ccccn2)CC1	1290					
O=C(C1CCCCC1)N(CCN1CCN(c2ccccc2O)CC1)c1ccccn1	2.1	0.3	166	10	0.6	0.2
CCCN(CCC)C1CCc2cccc(O)c2C1 (stereo not drawn) [8-OH-DPAT]			4.9		2	
O=C(C1CCCCC1)N(CCN1CCN(c2ccccc2OCCF)CC1)c1ccccn1	1.55	0.4	164	3.16	1.8	1.1
O=C(C1CCCCC1)N(CCN1CCN(c2ccccc2OCCCF)CC1)c1ccccn1	6.05	0.5	171	5.01	2.4	0.6
CS(=O)(=O)Oc1ccccc1N1CCN(CCN(C(=O)C2CCCCC2)c2ccccn2)CC1	7.25	0.4	167	2.51	1.1	0.5
O=C(C1CCCCC1)N(CCN1CCN(c2ccccc2OS(=O)(=O)C(F)(F)F)CC1)c1ccccn1	36	0.3	146	20	1.5	0
